Test results published in ChEMBL document CHEMBL4145553, “Design, synthesis, and biological evaluation of novel amide and hydrazide based thioether analogs targeting Histone deacteylase (HDAC) enzymes” (Eur J Med Chem, 2018).

What was measured:
Type in all cases: functional
CCRF-CEM = experiment: Growth inhibition of human CCRF-CEM cells assessed as cell growth at 10^-8 M incubated for 48 hrs by sulforhodamine B assay relative to control; details: read-out: Activity
KM12 = experiment: Growth inhibition of human KM12 cells assessed as cell growth at 10^-4 M incubated for 48 hrs by sulforhodamine B assay relative to control; details: KM12, 48 h, read-out: Activity
SK-MEL-2 = experiment: Growth inhibition of human SK-MEL-2 cells assessed as cell growth at 10^-6 M incubated for 48 hrs by sulforhodamine B assay relative to control; details: SK-MEL-2, 48 h, read-out: Activity
HCT-15 = experiment: Growth inhibition of human HCT15 cells assessed as cell growth at 10^-4 M incubated for 48 hrs by sulforhodamine B assay relative to control; details: HCT-15, 48 h, read-out: Activity
UACC-257 = experiment: Growth inhibition of human UACC257 cells incubated for 48 hrs by sulforhodamine B assay; details: UACC-257, 48 h
OVCAR-5 [1] = experiment: Growth inhibition of human OVCAR5 cells assessed as cell growth at 10^-4 M incubated for 48 hrs by sulforhodamine B assay relative to control; details: OVCAR-5, 48 h, read-out: Activity
HL-60 [2] = experiment: Induction of apoptosis in human HL60 cells assessed as late apoptotic cells by propidium iodide/Annexin V staining based flow cytometry (reference value: 0.54%)
SF-539 = experiment: Growth inhibition of human SF539 cells assessed as cell growth at 10^-5 M incubated for 48 hrs by sulforhodamine B assay relative to control; details: SF-539, 48 h, read-out: Activity
LOX IMVI [3] = experiment: Growth inhibition of human LOXIMVI cells assessed as cell growth at 10^-4 M incubated for 48 hrs by sulforhodamine B assay relative to control; details: read-out: Activity
NCI-H23 = experiment: Growth inhibition of human NCI-H23 cells assessed as cell growth at 10^-5 M incubated for 48 hrs by sulforhodamine B assay relative to control; details: NCI-H23, 48 h, read-out: Activity
CAKI-1 [4] = experiment: Growth inhibition of human Caki1 cells assessed as cell growth at 10^-6 M incubated for 48 hrs by sulforhodamine B assay relative to control; details: CAKI-1, 48 h, read-out: Activity
LOX IMVI [5] = experiment: Growth inhibition of human LOXIMVI cells assessed as cell growth at 10^-6 M incubated for 48 hrs by sulforhodamine B assay relative to control; details: read-out: Activity
OVCAR-5 [6] = experiment: Growth inhibition of human OVCAR5 cells assessed as cell growth at 10^-5 M incubated for 48 hrs by sulforhodamine B assay relative to control; details: OVCAR-5, 48 h, read-out: Activity
CAKI-1 [7] = experiment: Growth inhibition of human Caki1 cells incubated for 48 hrs by sulforhodamine B assay; details: CAKI-1, 48 h
K562 = experiment: Growth inhibition of human K562 cells incubated for 48 hrs by sulforhodamine B assay; details: K562, 48 h
Hs-578T = experiment: Growth inhibition of human Hs 578T cells assessed as cell growth at 10^-5 M incubated for 48 hrs by sulforhodamine B assay relative to control; details: read-out: Activity
TK-10 [8] = experiment: Growth inhibition of human TK10 cells assessed as cell growth at 10^-5 M incubated for 48 hrs by sulforhodamine B assay relative to control; details: TK-10, 48 h, read-out: Activity
HOP-62 = experiment: Growth inhibition of human HOP62 cells incubated for 48 hrs by sulforhodamine B assay; details: HOP-62, 48 h
UO-31 = experiment: Growth inhibition of human UO31 cells assessed as cell growth at 10^-8 M incubated for 48 hrs by sulforhodamine B assay relative to control; details: UO-31, 48 h, read-out: Activity
HL-60 [9] = experiment: Cell cycle arrest in human HL60 cells assessed as accumulation at G2-phase by propidium iodide staining based flow cytometry (reference value: 6.58%)
SN12C = experiment: Growth inhibition of human SN12C cells assessed as cell growth at 10^-8 M incubated for 48 hrs by sulforhodamine B assay relative to control; details: read-out: Activity
TK-10 [10] = experiment: Growth inhibition of human TK10 cells incubated for 48 hrs by sulforhodamine B assay; details: TK-10, 48 h
786-0 = experiment: Growth inhibition of human 786-0 cells incubated for 48 hrs by sulforhodamine B assay; details: 786-0, 48 h
NCI-H322M = experiment: Growth inhibition of human NCI-H322M cells assessed as cell growth at 10^-6 M incubated for 48 hrs by sulforhodamine B assay relative to control; details: read-out: Activity
EKVX = experiment: Growth inhibition of human EKVX cells assessed as cell growth at 10^-5 M incubated for 48 hrs by sulforhodamine B assay relative to control; details: read-out: Activity
OVCAR-4 = experiment: Growth inhibition of human OVCAR4 cells assessed as cell growth at 10^-7 M incubated for 48 hrs by sulforhodamine B assay relative to control; details: OVCAR-4, 48 h, read-out: Activity
MCF7 = experiment: Growth inhibition of human MCF7 cells assessed as cell growth at 10^-8 M incubated for 48 hrs by sulforhodamine B assay relative to control; details: MCF7, 48 h, read-out: Activity
HL-60(TB) = experiment: Growth inhibition of human HL-60(TB) cells assessed as cell growth at 10^-4 M incubated for 48 hrs by sulforhodamine B assay relative to control; details: HL-60, 48 h, read-out: Activity
NCI-H522 = experiment: Growth inhibition of human NCI-H522 cells assessed as cell growth at 10^-8 M incubated for 48 hrs by sulforhodamine B assay relative to control; details: NCI-H522, 48 h, read-out: Activity
SW-620 = experiment: Growth inhibition of human SW620 cells assessed as cell growth at 10^-8 M incubated for 48 hrs by sulforhodamine B assay relative to control; details: SW-620, 48 h, read-out: Activity
[11] = read-out: LC50 (the source's name)
[12] = read-out: pLC50 (the source's name) (converted)

SMILES: CCS/C(Nc1ccccc1)=C(\C#N)C(=O)Nc1ccc(OC)cc1
- growth at 0.01 µM (CCRF-CEM): 91%
- growth at 100 µM (KM12): 7%
- growth at 1 µM (SK-MEL-2): 86%
- growth at 100 µM (HCT-15): 4%
- GI50 (UACC-257; read-out: GI50): 21.2 µM
- CC50 (UACC-257; [11]): > 100 µM
- TGI (UACC-257; read-out: TGI): > 100 µM
- GI50 (UACC-257; read-out: pGI50 (converted)): 21.4 µM
- CC50 (UACC-257; [12]): > 100 µM
- TGI (UACC-257; read-out: pTGI): > 100 µM
- growth at 100 µM (OVCAR-5 [1]): 23%
- Activity (HL-60 [2]): 7.19%
- growth at 10 µM (SF-539): -41%
- growth at 100 µM (LOX IMVI [3]): 12%
- growth at 10 µM (NCI-H23): 34%
- growth at 1 µM (CAKI-1 [4]): 73%
- growth at 1 µM (LOX IMVI [5]): 89%
- growth at 10 µM (OVCAR-5 [6]): 33%
- GI50 (CAKI-1 [7]; read-out: GI50): 3.39 µM
- CC50 (CAKI-1 [7]; [11]): > 100 µM
- TGI (CAKI-1 [7]; read-out: TGI): > 100 µM
- GI50 (CAKI-1 [7]; read-out: pGI50 (converted)): 3.39 µM
- CC50 (CAKI-1 [7]; [12]): > 100 µM
- TGI (CAKI-1 [7]; read-out: pTGI): > 100 µM
- GI50 (K562; read-out: GI50): 0.436 µM
- CC50 (K562; [11]): > 100 µM
- TGI (K562; read-out: TGI): > 100 µM
- GI50 (K562; read-out: pGI50 (converted)): 0.437 µM
- CC50 (K562; [12]): > 100 µM
- TGI (K562; read-out: pTGI): > 100 µM
- growth at 10 µM (Hs-578T): 28%
- growth at 10 µM (TK-10 [8]): 66%
- GI50 (HOP-62; read-out: GI50): 5.62 µM
- CC50 (HOP-62; [11]): > 100 µM
- TGI (HOP-62; read-out: TGI): > 100 µM
- GI50 (HOP-62; read-out: pGI50 (converted)): 5.62 µM
- CC50 (HOP-62; [12]): > 100 µM
- TGI (HOP-62; read-out: pTGI): > 100 µM
- growth at 0.01 µM (UO-31): 93%
- Activity (HL-60 [9]): 16.32%
- growth at 0.01 µM (SN12C): 97%
- GI50 (TK-10 [10]; read-out: GI50): 24.3 µM
- CC50 (TK-10 [10]; [11]): > 100 µM
- TGI (TK-10 [10]; read-out: TGI): > 100 µM
- GI50 (TK-10 [10]; read-out: pGI50 (converted)): 24.5 µM
- CC50 (TK-10 [10]; [12]): > 100 µM
- TGI (TK-10 [10]; read-out: pTGI): > 100 µM
- GI50 (786-0; read-out: GI50): 4.14 µM
- CC50 (786-0; [11]): > 100 µM
- TGI (786-0; read-out: TGI): > 100 µM
- GI50 (786-0; read-out: pGI50 (converted)): 4.17 µM
- CC50 (786-0; [12]): > 100 µM
- TGI (786-0; read-out: pTGI): > 100 µM
- growth at 1 µM (NCI-H322M): 89%
- growth at 10 µM (EKVX): 31%
- growth at 0.1 µM (OVCAR-4): 88%
- growth at 0.01 µM (MCF7): 98%
- growth at 100 µM (HL-60(TB)): 2%
- growth at 0.01 µM (NCI-H522): 107%
- growth at 0.01 µM (SW-620): 97%

SMILES: CCS/C(Nc1ccccc1)=C(\C#N)C(=O)N/N=C\c1ccc(Cl)cc1Cl
- growth at 0.01 µM (CCRF-CEM): 103%
- growth at 100 µM (KM12): 22%
- growth at 1 µM (SK-MEL-2): 86%
- growth at 100 µM (HCT-15): 11%
- GI50 (UACC-257; read-out: GI50): 25.7 µM
- CC50 (UACC-257; [11]): > 100 µM
- TGI (UACC-257; read-out: TGI): > 100 µM
- GI50 (UACC-257; read-out: pGI50 (converted)): 25.7 µM
- CC50 (UACC-257; [12]): > 100 µM
- TGI (UACC-257; read-out: pTGI): > 100 µM
- growth at 100 µM (OVCAR-5 [1]): 38%
- Activity (HL-60 [2]): 8.54%
- growth at 10 µM (SF-539): 3%
- growth at 100 µM (LOX IMVI [3]): 22%
- growth at 10 µM (NCI-H23): 41%
- growth at 1 µM (CAKI-1 [4]): 67%
- growth at 1 µM (LOX IMVI [5]): 86%
- growth at 10 µM (OVCAR-5 [6]): 45%
- GI50 (CAKI-1 [7]; read-out: GI50): 2.39 µM
- CC50 (CAKI-1 [7]; [11]): > 100 µM
- TGI (CAKI-1 [7]; read-out: TGI): > 100 µM
- GI50 (CAKI-1 [7]; read-out: pGI50 (converted)): 2.4 µM
- CC50 (CAKI-1 [7]; [12]): > 100 µM
- TGI (CAKI-1 [7]; read-out: pTGI): > 100 µM
- GI50 (K562; read-out: GI50): 0.855 µM
- CC50 (K562; [11]): > 100 µM
- TGI (K562; read-out: TGI): > 100 µM
- GI50 (K562; read-out: pGI50 (converted)): 0.851 µM
- CC50 (K562; [12]): > 100 µM
- TGI (K562; read-out: pTGI): > 100 µM
- growth at 10 µM (Hs-578T): 18%
- growth at 10 µM (TK-10 [8]): 50%
- GI50 (HOP-62; read-out: GI50): 3.66 µM
- CC50 (HOP-62; [11]): > 100 µM
- TGI (HOP-62; read-out: TGI): > 100 µM
- GI50 (HOP-62; read-out: pGI50 (converted)): 3.63 µM
- CC50 (HOP-62; [12]): > 100 µM
- TGI (HOP-62; read-out: pTGI): > 100 µM
- growth at 0.01 µM (UO-31): 94%
- Activity (HL-60 [9]): 22.18%
- growth at 0.01 µM (SN12C): 97%
- GI50 (TK-10 [10]; read-out: GI50): 10.2 µM
- CC50 (TK-10 [10]; [11]): > 100 µM
- TGI (TK-10 [10]; read-out: TGI): > 100 µM
- GI50 (TK-10 [10]; read-out: pGI50 (converted)): 10.2 µM
- CC50 (TK-10 [10]; [12]): > 100 µM
- TGI (TK-10 [10]; read-out: pTGI): > 100 µM
- GI50 (786-0; read-out: GI50): 3.5 µM
- CC50 (786-0; [11]): > 100 µM
- TGI (786-0; read-out: TGI): > 100 µM
- GI50 (786-0; read-out: pGI50 (converted)): 3.47 µM
- CC50 (786-0; [12]): > 100 µM
- TGI (786-0; read-out: pTGI): > 100 µM
- growth at 1 µM (NCI-H322M): 89%
- growth at 10 µM (EKVX): 35%
- growth at 0.1 µM (OVCAR-4): 89%
- growth at 0.01 µM (MCF7): 97%
- growth at 100 µM (HL-60(TB)): 5%
- growth at 0.01 µM (NCI-H522): 109%
- growth at 0.01 µM (SW-620): 97%
